From patent US9403830B2, “Inhibitors of leukotriene production” (Boehringer Ingelheim International GmbH, priority 2012, dated 2016)
pIC50: −log10 of the molar value.

Legend:
human LTA4 hydrolase = target: T1, human LTA4 hydrolase (Homo sapiens, UniProt P09960); assay: LTA4H Enzyme assay (peptidase, Arg-AMC cleavage); type: biochemical; conditions: LTA4H enzyme 1 nM, Arg-AMC substrate 50 μM, room temperature 1 h, fluorescence 380/460 nm
T1 sequence (P09960 1-611): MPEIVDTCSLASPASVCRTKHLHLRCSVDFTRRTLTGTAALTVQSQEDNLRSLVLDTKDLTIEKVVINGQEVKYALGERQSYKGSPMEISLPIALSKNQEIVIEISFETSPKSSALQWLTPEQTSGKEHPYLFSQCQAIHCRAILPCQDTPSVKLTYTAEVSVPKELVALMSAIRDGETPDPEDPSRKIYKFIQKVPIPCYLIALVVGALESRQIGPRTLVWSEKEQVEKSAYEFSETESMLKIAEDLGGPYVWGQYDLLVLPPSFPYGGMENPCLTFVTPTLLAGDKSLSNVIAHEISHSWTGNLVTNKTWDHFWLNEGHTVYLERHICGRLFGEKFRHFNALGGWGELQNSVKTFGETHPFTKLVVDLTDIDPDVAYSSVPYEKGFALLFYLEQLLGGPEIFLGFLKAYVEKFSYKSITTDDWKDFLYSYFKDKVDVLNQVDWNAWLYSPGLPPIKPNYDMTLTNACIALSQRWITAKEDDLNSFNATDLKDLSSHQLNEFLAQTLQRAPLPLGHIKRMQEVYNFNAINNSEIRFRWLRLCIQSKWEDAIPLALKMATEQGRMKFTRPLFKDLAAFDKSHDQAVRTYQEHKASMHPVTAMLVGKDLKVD
Procedure: The compounds of the invention are assessed for the ability to interact with human LTA4 hydrolase in an enzymatic assay that measures the ability of the enzyme to cleave the peptide bond of arginyl-aminomethylcoumarin (Arg-AMC). LTA4H Enzyme (1 nM final), Arg-AMC substrate (50 μM final), and compound are combined in a reaction buffer (50 mM Tris-HCl (pH 7.5), 100 mM KCl, 0.5% bovine serum albumin) at room temperature for 1 h. The formation of product is assessed by measuring the fluorescence of aminomethylcoumarin product (excitation wavelength 380 nm/emission wavelength 460 nm). In general, the preferred potency range (IC50) of compounds in the LTA4H Enzyme assay is between 0.1 nM to 10 μM, the more preferred potency range is 0.1 nM to 0.1 μM, and the most preferred potency range is 0.1 nM to 10 nM.

[1] = tested on: LTB4 synthesis in human whole blood; assay: human whole blood (HWB) assay, inhibition of LTB4 production; type: cell-based; conditions: heparinized human whole blood, calcimycin 20 μM stimulation, plasma LTB4
Procedure: The compounds of the invention are additionally tested in a human whole blood (HWB) assay to determine their ability to inhibit the synthesis of LTB4 in a cellular system. Compounds are combined with heparinized human whole blood and incubated for 15 minutes at 37° C. Calcimycin (20 μM final, prepared in phosphate-buffered saline, pH 7.4) is then added and the mixture is incubated for another 30 minutes at 37° C. The samples are centrifuged for 5 min at low speed (1500×g) and the plasma layer is removed. Plasma LTB4 concentrations are then measured using an antibody-based homogenous time-resolved fluorescence method (CisBio, Bedford, Mass.). In general, the preferred potency range (IC50) of compounds in the HWB assay is between 10 nM to 10 μM, the more preferred potency range is 10 nM to 1 μM, and the most preferred potency range is 10 nM to 100 nM.

Row | pIC50 (human LTA4 hydrolase) | pIC50 [1] | Compound
1 | 9.11 | 6.41 | O=c1cccc2n1C[C@H]1C[C@@H]2CN(Cc2ccc3cc(Oc4ccc(-c5ccn[nH]5)cn4)ccc3n2)C1 [Example 213, (1R,5S)-3-{6-[5-(2H-Pyrazol-3-yl)-pyridin-2-yloxy]-quinolin-2-ylmethyl}-1,2,3,4,5,6-hexahydro-1,5-methano-pyrido[1,2-a][1,5]diazocin-8-one]
2 | 9.18 | 6.72 | CCC(=O)N1CCN(Cc2ccc3cc(Oc4ccc(-c5ccn[nH]5)cn4)ccc3n2)CC1 [Example 29, 1-(4-{6-[5-(2H-Pyrazol-3-yl)-pyridin-2-yloxy]-quinolin-2-ylmethyl}-piperazin-1-yl)-propan-1-one]
3 | 10.21 | 6.89 | O=C(O)c1ccc(C2CCN(Cc3ccc4c(ccn4Cc4ccc(-c5ccn[nH]5)cc4)c3)CC2)cc1 [Example 124, 4-(1-{1-[4-(2H-pyrazol-3-yl)-benzyl]-1H-indol-5-ylmethyl}-piperidin-4-yl)-benzoic acid]
4 | 9.41 | 6.89 | CC(=O)N1CCN(Cc2ccc3cc(Oc4ccc(-c5ccn[nH]5)cn4)ccc3c2)CC1 [Example 2, 1-(4-{6-[5-(2H-Pyrazol-3-yl)-pyridin-2-yloxy]-naphthalen-2-ylmethyl}-piperazin-1-yl)-ethanone]
5 | 9.89 | 6.96 | O=C(N1CCN(Cc2nc3cc(Oc4ccc(-c5ccn[nH]5)cc4)ccc3[nH]2)CC1)C(F)(F)F [Example 57, 2,2,2-Trifluoro-1-(4-[5-[4-(2H-pyrazol-3-yl)-phenoxy]-1H-benzoimidazol-2-ylmethyl]-piperazin-1-yl)-ethanone]
6 | 9.32 | 7.05 | c1cc(-c2ccc(Oc3ccc4nc(CN5CCCCC5)ccc4c3)nc2)[nH]n1 [Example 23, 2-Piperidin-1-ylmethyl-6-[5-(2H-pyrazol-3-yl)-pyridin-2-yloxy]-quinoline]
7 | 7.70 | 5.70 | O=C1CC[C@@H](COc2nccc3cc(Oc4ccc(-c5ccn[nH]5)cc4)ccc23)N1 [Example 119, (S)-5-{6-[4-(2H-Pyrazol-3-yl)-phenoxy]-isoquinolin-1-yloxymethyl}-pyrrolidin-2-one]
8 | 9.89 | 6.92 | c1cc(-c2ccc(Oc3ccc4[nH]c(CN5C[C@@H]6CC[C@@H](C5)O6)nc4c3)cc2)[nH]n1 [Example 58, (1S,5S)-3-{5-[4-(2H-Pyrazol-3-yl)-phenoxy]-1H-benzoimidazol-2-ylmethyl}-8-oxa-3-aza-bicyclo[3.2.1]octane]
9 | 9.44 | 6.92 | c1cc(-c2ccc(Oc3ccc4nn(CCCN5CCOCC5)cc4c3)cc2)[nH]n1 [Example 84, 2-(3-Morpholin-4-yl-propyl)-5-[4-(2H-pyrazol-3-yl)-phenoxy]-2H-indazole]
10 | 9.57 | 6.72 | CN(Cc1nc2cc(Oc3ccc(-c4ccn[nH]4)cc3)ccc2[nH]1)CC1CCOC1 (stereo not shown) [Example 104, Methyl-{5-[4-(2H-pyrazol-3-yl)-phenoxy]-1H-benzoimidazol-2-ylmethyl}-(tetrahydro-furan-3-ylmethyl)-amine]
11 | 9.72 | 7.02 | CCN(C)CCn1cc2cc(Oc3ccc(-c4ccn[nH]4)cc3)ccc2n1 [Example 154, Ethyl-methyl-(2-{5-[4-(2H-pyrazol-3-yl)-phenoxy]-indazol-2-yl}-ethyl)-amine]
12 | 8.92 | 6.51 | c1cc(-c2ccc(Oc3ccc4cc(CN5CCOCC5)nn4c3)cc2)[nH]n1 [Example 14, 2-morpholin-4-ylmethyl-6-[4-(2H-pyrazol-3-yl)-phenoxy]-pyrazolo[1,5-a]pyridine]
13 | 8.70 | 6.24 | O=C1CCC2CN(Cc3ccc4cc(Oc5ccc(-c6ccn[nH]6)cn5)ccc4n3)CCN12 (stereo not shown) [Example 18, 2-{6-[5-(2H-pyrazol-3-yl)-pyridin-2-yloxy]-quinolin-2-ylmethyl}-hexahydro-pyrrolo[1,2-a]pyrazin-6-one]
14 | 9.31 | 6.66 | NC(=O)[C@H]1[C@@H]2CN(Cc3ccc4cc(Oc5ccc(-c6ccn[nH]6)cn5)ccc4n3)C[C@@H]21 [Example 35, (1α,5α,6α)-3-{6-[5-(2H-Pyrazol-3-yl)-pyridin-2-yloxy]-quinolin-2-ylmethyl}-3-aza-bicyclo[3.1.0]hexane-6-carboxylic acid amide]
15 | 9.85 | 6.92 | CC[C@H](C)NCc1nc2cc(Oc3ccc(-c4ccn[nH]4)cc3)ccc2[nH]1 [Example 161, ((S)-sec-Butyl)-{5-[4-(2H-pyrazol-3-yl)-phenoxy]-1H-benzoimidazol-2-ylmethyl}-amine]
16 | 9.07 | 6.57 | CC(=O)N(C)C1CCN(Cc2ccc3cc(Oc4ccc(-c5ccn[nH]5)cn4)ccc3n2)CC1 [Example 37, N-Methyl-N-(1-{6-[5-(2H-pyrazol-3-yl)-pyridin-2-yloxy]-quinolin-2-ylmethyl}-piperidin-4-yl)-acetamide]
17 | 9.03 | 6.70 | O=C(CO)N1CCCN(Cc2ccc3cc(Oc4ccc(-c5ccn[nH]5)cn4)ccc3n2)CC1 [Example 140, 2-Hydroxy-1-(4-{6-[5-(2H-pyrazol-3-yl)-pyridin-2-yloxy]-quinolin-2-ylmethyl}-[1,4]diazepan-1-yl)-ethanone]
18 | 9.85 | 6.49 | c1cc(-c2ccc(Oc3ccc4[nH]c(CN5CC6(COC6)C5)nc4c3)cc2)[nH]n1 [Example 72, 2-(2-Oxa-6-aza-spiro[3.3]hept-6-ylmethyl)-5-[4-(2H-pyrazol-3-yl)-phenoxy]-1H-benzoimidazole]
19 | 9.57 | 6.77 | CC(=O)N1CCN(Cc2cc3ccc(Oc4ccc(-c5ccn[nH]5)cn4)cc3[nH]2)CC1 [Example 221, 1-(4-{6-[5-(2H-Pyrazol-3-yl)-pyridin-2-yloxy]-1H-indol-2-ylmethyl}-piperazin-1-yl)-ethanone]
20 | 9.62 | 7.15 | c1cc(-c2ccc(Oc3ccc4nc(CN5CCCC5)ccc4c3)nc2)[nH]n1 [Example 19, 6-[5-(2H-Pyrazol-3-yl)-pyridin-2-yloxy]-2-pyrrolidin-1-ylmethyl-quinoline]
21 | 9.85 | 6.92 | CN(Cc1nc2cc(Oc3ccc(-c4ccn[nH]4)cc3)ccc2[nH]1)C1CCCC1 [Example 164, Cyclopentyl-methyl-{5-[4-(2H-pyrazol-3-yl)-phenoxy]-1H-benzoimidazol-2-ylmethyl}-amine]
22 | 8.92 | 6.68 | CO[C@@H]1CCN(Cc2ccc3cc(Oc4ccc(-c5ccn[nH]5)cn4)ccc3n2)C1 [Example 205, 2-((R)-3-Methoxy-pyrrolidin-1-ylmethyl)-6-[5-(2H-pyrazol-3-yl)-pyridin-2-yloxy]-quinoline]
23 | 8.82 | 6.41 | CC(=O)NCCNCc1ccc2cc(Oc3ccc(-c4ccn[nH]4)cn3)ccc2n1 [Example 121, N-[2-({6-[5-(2H-Pyrazol-3-yl)-pyridin-2-yloxy]-quinolin-2-ylmethyl}-amino)-ethyl]-acetamide]
24 | 9.70 | 7.06 | CN(Cc1nc2cc(Oc3ccc(-c4ccn[nH]4)cc3)ccc2[nH]1)C[C@@H]1CCCO1 [Example 76, Methyl-{5-[4-(2H-pyrazol-3-yl)-phenoxy]-1H-benzoimidazol-2-ylmethyl}-[(S)-1-(tetrahydro-furan-2-yl)methyl]-amine]
25 | 9.55 | 6.82 | CC(=O)N1CCCN(CCc2coc3cc(Oc4ccc(-c5ccn[nH]5)cn4)ccc23)CC1 [Example 134, 1-[4-(2-{6-[5-(2H-Pyrazol-3-yl)-pyridin-2-yloxy]-benzofuran-3-yl}-ethyl)-[1,4]diazepan-1-yl]-ethanone]
26 | 8.60 | 6.40 | c1cc(-c2ccc(Oc3ccc4nc(CNCCC5CCOCC5)ccc4c3)nc2)[nH]n1 [Example 214, {6-[5-(2H-Pyrazol-3-yl)-pyridin-2-yloxy]-quinolin-2-ylmethyl}-[2-(tetrahydro-pyran-4-yl)-ethyl]-amine]
